Entries after “also recorded” stand apart in the source; their conditions may differ.
The molecules below were run on vaccinia virus.
Assay type: cell-based
Throughout, for VACCINIA PLAQUE ASSAY 2: test concentration or dose not given here.

Compound | VACCINIA PLAQUE ASSAY 2 | Class category of infected monolayers in plaque assay | Plaque phenotype due to drug treatment (FIGS. 1, 2, 4) | VACCINIA Plaque Assay
CCOC(=O)c1ccc(-c2ccc3c(-c4ccc(Cl)c(F)c4)n[nH]c3n2)cc1 [APcK-49] | SMALL PLAQUES | – | – | –
COc1ccccc1NS(=O)(=O)c1cccc(Nc2cc(-c3ccc(C(C)=O)cc3)ncn2)c1 [Eph2_wbz 110] | PINPOINT | Class III | pinpoint plaque formations; also recorded: pinpoint plaques | PINPOINT PLAQUES
CC(=O)Nc1cccc(-c2ccc3c(-c4ccc(Br)cc4F)n[nH]c3n2)c1 [APcK-41] | NO PLAQUES | – | – | –
O=C(Nc1cccc(-c2ccc3nnc(-c4ccc[nH]4)n3n2)c1)c1cccc([N+](=O)[O-])c1 [YYB34] | – | – | – | LARGE COMETS
CC(=O)Nc1cccc(-c2ccc3c(-c4ccc(Cl)c(F)c4)n[nH]c3n2)c1 [APcK-104] | PINPOINT PLAQUES | Class III | – | SMALLER PLAQUES THAN WT. NO COMETS
CC(C)c1ccc(Nc2nccn3c(Br)cnc23)cc1 [LG2-60] | NO PLAQUES | – | – | –
Cc1ccc(-n2c(=O)[nH]c3c(C(N)=O)nc(-c4c(F)cc(Cl)cc4F)nc32)cc1 [dm-I-187] | NO PLAQUES | Class III | small plaques with no comets; also recorded: smaller (pinpoint) plaques with no comets | SMALL PLAQUES
Cn1c(=O)c(-c2c(Cl)cccc2Cl)cc2cnc(NC3CCCCC3)nc21 [YYA194] | NO PLAQUES | Class III | – | PINPOINT PLAQUES
COc1ccccc1NS(=O)(=O)c1cccc(Nc2cc(-c3ccc(NC(C)=O)cc3)ncn2)c1 [Eph2_wbz 106] | SMALLER PLAQUES THAN WT | Class III | – | NO PLAQUES
CC(=O)Nc1ccc(-c2ccc3c(-c4ccc(Br)c(F)c4)n[nH]c3n2)cc1 [APcK-20] | NO PLAQUES | – | – | –
O=C(Nc1cccc(-c2ccc3nncn3n2)c1)c1cccc([N+](=O)[O-])c1 [YYB31] | PINPOINTS | Class III | – | FEW COMETS
CC(=O)Nc1cccc(-c2ccc3c(-c4ccc(F)c(C)c4)n[nH]c3n2)c1 [APcK-102] | NO PLAQUES | Class III | – | SMALLER PLAQUES THAN WT
O=C(NCCO)c1cccc(-c2cnc3c(NCc4cccs4)nccn23)c1 [LG2-98] | PINPOINTS | Class III | – | SMALL PLAQUES, WITH TAILS
O=C1NC(=O)/C(=C/c2ccc3nccnc3c2)S1 [AS-604240, reference compound] | PINPOINT PLAQUES | Class III | – | PINPOINT PLAQUES
CCc1nnc2ccc(-c3cccc(NC(=O)c4ccc(OC)c(OC)c4)c3)nn12 [YYB41] | SMALL PLAQUES | Class II | – | SMALL PLAQUES
O=C(c1ccccc1)c1ccc(-c2ccc3c(-c4ccc(Cl)c(F)c4)n[nH]c3n2)cc1 [APcK-35] | NO PLAQUES | Class III | – | SMALL PLAQUES, NO COMETS
COc1ccccc1NS(=O)(=O)c1cccc(Nc2cc(-c3ccc(C(F)(F)F)cc3)ncn2)c1 [Eph2_wbz 107] | SMALLER PLAQUES THAN WT | Class II | – | SMALLER PLAQUES THAN WT
COc1ccccc1Nc1cc(-c2ccc(NC(C)=O)cc2)ncn1 [Eph2_wbz 206] | SMALL PLAQUES | Class II | small plaques with comets | SMALL PLAQUES, COMETS?
